This note sets out measurements from US20090029992A1, “SUBSTITUTED PYRAZOLE COMPOUNDS” (priority 2007, published 2009).

In experiment [1] the target is T1, N-terminal His-tagged human Src (Homo sapiens, UniProt P12931).
T1 construct: His (N); purchased Upstate USA Inc, 706 Forest Street, Charlottesville, Va
Description: Src kinase inhibition assay (33P-ATP filter assay). In kind it is biochemical.

In experiment [2] the test system is HCT116 cells. Description: Whole cell cytotoxicity assay, Sulforhodamine B. The conditions noted are these: Homo sapiens, HCT-116, HCT116, 96 hours incubation, SRB; for IC50: read-out: IC50 values in this assay (HCT116 cell growth); for GI50: read-out: GI50 HCT116 cell growth. Type of experiment: cell-based. The essentials:
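HCT116 cells (500/well) in DMEM/10% FBS/2 mM glutamine were preincubated 24 h, then exposed to compound for 96 h at 37 °C, 5% CO2, in duplicate. Cells were fixed with TCA and stained with sulforhodamine B (A570). GI50, TGI and LC50 were derived relative to a time-zero plate and an untreated control.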

The mark [3] stands for this setting: group with IC50 greater than 100 nM.

T1 sequence (P12931 whole entry): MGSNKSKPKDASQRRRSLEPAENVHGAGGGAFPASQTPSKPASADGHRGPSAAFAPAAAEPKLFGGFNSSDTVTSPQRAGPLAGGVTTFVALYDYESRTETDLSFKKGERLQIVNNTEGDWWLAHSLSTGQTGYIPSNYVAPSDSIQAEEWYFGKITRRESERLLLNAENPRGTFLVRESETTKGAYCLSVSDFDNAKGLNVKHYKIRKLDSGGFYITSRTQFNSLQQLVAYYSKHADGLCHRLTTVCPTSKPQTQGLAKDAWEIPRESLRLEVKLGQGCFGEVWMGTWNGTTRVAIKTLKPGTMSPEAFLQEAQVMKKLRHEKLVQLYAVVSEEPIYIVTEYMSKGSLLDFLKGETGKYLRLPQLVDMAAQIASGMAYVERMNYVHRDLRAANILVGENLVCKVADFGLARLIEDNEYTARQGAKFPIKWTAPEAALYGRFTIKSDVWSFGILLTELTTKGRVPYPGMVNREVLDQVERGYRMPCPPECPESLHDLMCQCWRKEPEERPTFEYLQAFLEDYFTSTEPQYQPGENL

One may read the IC50 as the concentration that gives 50% inhibition. Regarding `Cc1cc(Nc2cc(NC3CCOCC3)nc(-c3ccc(C(C)(C)C)cc3)n2)n[nH]1` [Compound 70, 2-(4-tert-butylphenyl)-N^4-(5-methyl-1H-pyrazol-3-yl)-N^6-(tetrahydro-2H-pyran-4-yl)pyrimidine-4,6-diamine], the values for the 50% inhibitory concentration (IC50) in experiment [1] (setting [3]) and in experiment [2] were at most 1000 nM and 1000 to 10000 nM, respectively.

For `Cc1cc(Nc2cc(N3CCN(C)CC3)nc(-c3ccccc3C(F)(F)F)n2)n[nH]1` [Compound 102, N-(5-methyl-1H-pyrazol-3-yl)-6-(4-methylpiperazin-1-yl)-2-(2-(trifluoromethyl)phenyl)pyrimidin-4-amine], the IC50 in experiment [1] (setting [3]) is at most 1000 nM; in experiment [2] it was 1000 to 10000 nM.

Take `Cc1cc(Nc2cc(NC3CCOCC3)nc(-c3ccccc3C(F)(F)F)n2)n[nH]1` [Compound 81, N^4-(5-methyl-1H-pyrazol-3-yl)-N^6-(tetrahydro-2H-pyran-4-yl)-2-(2-(trifluoromethyl)phenyl)pyrimidine-4,6-diamine]: the IC50 in experiment [1] (setting [3]) is at most 1000 nM; in experiment [2], 1000 to 10000 nM.

Turning to `Cc1cc(Nc2cc(NC3CCOCC3)nc(-c3cccc4ccccc34)n2)n[nH]1` [Example 127, N^4-(5-methyl-1H-pyrazol-3-yl)-2-(naphthalen-1-yl)-N^6-(tetrahydro-2H-pyran-4-yl)pyrimidine-4,6-diamine], the IC50 in experiment [1] (setting [3]) is at most 1000 nM; in experiment [2], 1000 to 10000 nM.

With `Cc1cc(Nc2cc(NC3CCOCC3)nc(-c3ccc(C(F)(F)F)cc3)n2)n[nH]1` [Compound 79, N^4-(5-methyl-1H-pyrazol-3-yl)-N^6-(tetrahydro-2H-pyran-4-yl)-2-(4-(trifluoromethyl)phenyl)pyrimidine-4,6-diamine], the 50% inhibitory concentration (IC50) in experiment [1] (setting [3]) is at most 1000 nM; in experiment [2] it was 1000 to 10000 nM.

Regarding `COCCN(C)c1cc(Nc2cc(C)[nH]n2)nc(-c2ccccc2Cl)n1` [Compound 63], the IC50 in experiment [1] (setting [3]) is at most 1000 nM; in experiment [2] it was 1000 to 10000 nM.

For the molecule `COCCN(C)c1cc(Nc2cc(C)[nH]n2)nc(-c2cccc(C)c2)n1` [Compound 65, N^4-(2-methoxyethyl)-N^4-methyl-N^6-(5-methyl-1H-pyrazol-3-yl)-2-m-tolylpyrimidine-4,6-diamine], the IC50 in experiment [1] (setting [3]) was at most 1000 nM; in experiment [2], 1000 to 10000 nM.

For the molecule `Cc1cc(Nc2cc(N(C)CCN(C)C)nc(-c3cccc(N(C)C)c3)n2)n[nH]1` [Compound 107], the values for the IC50 in experiment [1] (40 minutes at room temperature) and in experiment [2] were at most 100 nM and 1000 to 10000 nM, respectively.

As a reminder, the GI50 is the concentration at which growth is held to half of that of the control. On to `Cc1cc(Nc2cc(N(C)CCN(C)C)nc(-c3ccc4ccccc4c3)n2)n[nH]1` [Example 142, N^4-(2-(dimethylamino)ethyl)-N^4-methyl-N^6-(5-methyl-1H-pyrazol-3-yl)-2-(naphthalen-2-yl)pyrimidine-4,6-diamine], for which, in experiment [1] (40 minutes at room temperature), the half-inhibitory concentration (IC50) was at most 100 nM. The 50% growth inhibitory concentration (GI50) in experiment [2] was at most 1000 nM.

For `Cc1cc(Nc2cc(N3CCN(C)CC3)nc(-c3ccc(-c4ccccc4)cc3)n2)n[nH]1` [Example 157, 2-(biphenyl-4-yl)-N-(5-methyl-1H-pyrazol-3-yl)-6-(4-methylpiperazin-1-yl)pyrimidin-4-amine], the IC50 in experiment [1] (40 minutes at room temperature) was at most 100 nM. In experiment [2], the GI50 is at most 1000 nM.

Consider `COCCN(C)c1cc(Nc2cc(C)[nH]n2)nc(-c2cccc(OC)c2)n1` [Compound 68, N^4-(2-methoxyethyl)-2-(3-methoxyphenyl)-N^4-methyl-N^6-(5-methyl-1H-pyrazol-3-yl)pyrimidine-4,6-diamine], for which, in experiment [1] (setting [3]), the IC50 is at most 1000 nM. In addition, in experiment [2], the GI50 is at most 1000 nM.

With `Cc1cc(Nc2cc(NC3CCOCC3)nc(-c3cccc(C(F)(F)F)c3)n2)n[nH]1` [Compound 80, N^4-(5-methyl-1H-pyrazol-3-yl)-N^6-(tetrahydro-2H-pyran-4-yl)-2-(3-(trifluoromethyl)phenyl)pyrimidine-4,6-diamine], the IC50 is at most 1000 nM in experiment [1] (setting [3]) and 1000 to 10000 nM in experiment [2].

Consider `COCCN(C)c1cc(Nc2cc(C)[nH]n2)nc(-c2cccc3ccccc23)n1` [Example 148, N^4-(2-methoxyethyl)-N^4-methyl-N^6-(5-methyl-1H-pyrazol-3-yl)-2-(naphthalen-1-yl)pyrimidine-4,6-diamine], for which the IC50 in experiment [1] (setting [3]) was at most 1000 nM; in experiment [2], 1000 to 10000 nM.

In experiment [1] (40 minutes at room temperature), `Cc1cc(Nc2cc(N(C)CCN(C)C)nc(-c3ccc(C(C)(C)C)cc3)n2)n[nH]1` [Compound 103, 2-(4-tert-butylphenyl)-N^4-(2-(dimethylamino)ethyl)-N^4-methyl-N^6-(5-methyl-1H-pyrazol-3-yl)pyrimidine-4,6-diamine] showed an IC50 of at most 100 nM. For the same molecule, the GI50 in experiment [2] is at most 1000 nM.

As for `Cc1cc(Nc2cc(N3CCN(C)CC3)nc(-c3ccc(C(F)(F)F)cc3)n2)n[nH]1` [Compound 100], the figures for the IC50 in experiment [1] (setting [3]) and in experiment [2] were at most 1000 nM and 1000 to 10000 nM, respectively.

Turning to `COCCN(C)c1cc(Nc2cc(C)[nH]n2)nc(-c2ccc(N(C)C)cc2)n1` [Compound 118, 2-(4-(dimethylamino)phenyl)-N^4-(2-methoxyethyl)-N^4-methyl-N^6-(5-methyl-1H-pyrazol-3-yl)pyrimidine-4,6-diamine], the values for the IC50 in experiment [1] (40 minutes at room temperature) and in experiment [2] were at most 100 nM and 1000 to 10000 nM, respectively.

For `COCCN(C)c1cc(Nc2cc(C)[nH]n2)nc(-c2cccc(C(F)(F)F)c2)n1` [Compound 125, N^4-(2-methoxyethyl)-N^4-methyl-N^6-(5-methyl-1H-pyrazol-3-yl)-2-(3-(trifluoromethyl)phenyl)pyrimidine-4,6-diamine], the half-maximal inhibitory concentration (IC50) was at most 1000 nM in experiment [1] (setting [3]) and 1000 to 10000 nM in experiment [2].

`Cc1cc(Nc2cc(N(C)CCN(C)C)nc(-c3cccc(C(F)(F)F)c3)n2)n[nH]1` [Compound 113, N^4-(2-(dimethylamino)ethyl)-N^4-methyl-N^6-(5-methyl-1H-pyrazol-3-yl)-2-(3-(trifluoromethyl)phenyl)pyrimidine-4,6-diamine] came in with an IC50 in experiment [1] (40 minutes at room temperature) of at most 100 nM. Moreover, the GI50 in experiment [2] is at most 1000 nM.

`Cc1cc(Nc2cc(N3CCN(C)CC3)nc(-c3cccc4c3OCCO4)n2)n[nH]1` [Example 136, 2-(2,3-dihydrobenzo[b][1,4]dioxin-5-yl)-N-(5-methyl-1H-pyrazol-3-yl)-6-(4-methylpiperazin-1-yl)pyrimidin-4-amine]: the values for the concentration for half-maximal inhibition (IC50) in experiment [1] (setting [3]) and in experiment [2] were at most 1000 nM and 1000 to 10000 nM, respectively.

`Cc1cc(Nc2cc(N3CCN(C)CC3)nc(-c3cc(F)cc(Cl)c3)n2)n[nH]1` [Compound 97] came in with an IC50 in experiment [1] (setting [3]) of at most 1000 nM. In addition, the GI50 in experiment [2] was at most 1000 nM.

In experiment [1] (40 minutes at room temperature), `Cc1cc(Nc2cc(N(C)CCN(C)C)nc(-c3ccc4c(c3)OCO4)n2)n[nH]1` [Example 146, 2-(benzo[d][1,3]dioxol-5-yl)-N^4-(2-(dimethylamino)ethyl)-N^4-methyl-N^6-(5-methyl-1H-pyrazol-3-yl)pyrimidine-4,6-diamine] came in with an IC50 of at most 100 nM. The GI50 in experiment [2] was at most 1000 nM.

Take `COCCN(C)c1cc(Nc2cc(C)[nH]n2)nc(-c2ccc(OC)cc2)n1` [Compound 67, N^4-(2-methoxyethyl)-2-(4-methoxyphenyl)-N^4-methyl-N^6-(5-methyl-1H-pyrazol-3-yl)pyrimidine-4,6-diamine]: the IC50 is at most 1000 nM in experiment [1] (setting [3]) and 1000 to 10000 nM in experiment [2].

As to `COCCN(C)c1cc(Nc2cc(C)[nH]n2)nc(-c2ccc3ccccc3c2)n1` [Example 149, N^4-(2-methoxyethyl)-N^4-methyl-N^6-(5-methyl-1H-pyrazol-3-yl)-2-(naphthalen-2-yl)pyrimidine-4,6-diamine], the concentration for half-maximal inhibition (IC50) in experiment [1] (setting [3]) is at most 1000 nM; in experiment [2], 1000 to 10000 nM.

On to `COCCN(C)c1cc(Nc2cc(C)[nH]n2)nc(-c2ccccc2C(F)(F)F)n1` [Example 126, N^4-(2-methoxyethyl)-N^4-methyl-N^6-(5-methyl-1H-pyrazol-3-yl)-2-(2-(trifluoromethyl)phenyl)pyrimidine-4,6-diamine], for which the IC50 in experiment [2] lay in the range of 1000 to 10000 nM.

`COCCN(C)c1cc(Nc2cc(C)[nH]n2)nc(-c2cccc3c2OCCO3)n1` [Example 150, 2-(2,3-dihydrobenzo[b][1,4]dioxin-5-yl)-N^4-(2-methoxyethyl)-N^4-methyl-N^6-(5-methyl-1H-pyrazol-3-yl)pyrimidine-4,6-diamine]: in experiment [2], the IC50 is 1000 to 10000 nM.
